“And” between values parts separate entries of the source, which are not always exact repeats. Equal entries are not always repeated. Results filed as inconclusive are left out.

The subject of this test is nude mice, LX-1 lung xenograft intrarenal, tumor weight T/C. Briefly: NCI In Vivo Anticancer Drug Screen. Data for tumor model Human Lung LX-1 Xenograft (intrarenal inoculation) in NU/NU Swiss (nude) mice. Particulars: endpoint: mean tumor weight change, higher = larger tumour. The protocol: The antitumor activity of compounds was measured in mice bearing transplantable tumors. Survival or tumor size were measured and the results are expressed as the measurement made in the treated group (T) divided by the measurement made in the vehicle treated control group (C). The tumor model used in this assay is Human Lung LX-1 Xenograft (intrarenal inoculation) in NU/NU Swiss (nude) mice

The mark [1] stands for this setting: dose: 18.75 mg/kg/injection, schedule: Q04DX003 (sc), vehicle: Klucel (hydroxypropylcellulose) (HPC).
Setting [2] is: dose: 37.5 mg/kg/injection, schedule: Q04DX003 (sc), vehicle: Klucel (hydroxypropylcellulose) (HPC).
The mark [3] stands for this setting: dose: 75.0 mg/kg/injection, schedule: Q04DX003 (sc), vehicle: Klucel (hydroxypropylcellulose) (HPC).
[4] abbreviates: dose: 50.0 mg/kg/injection, schedule: Q01DX010 (sc), vehicle: Klucel (hydroxypropylcellulose) (HPC).
[5] abbreviates: dose: 100.0 mg/kg/injection, schedule: Q01DX010 (sc), vehicle: Klucel (hydroxypropylcellulose) (HPC).
Setting [6] is: dose: 400.0 mg/kg/injection, schedule: Q01DX010 (sc), vehicle: Klucel (hydroxypropylcellulose) (HPC).
[7] abbreviates: dose: 300.0 mg/kg/injection, schedule: Q04DX003 (sc), vehicle: saline with Tween-80.
Where [8] appears, read: dose: 150.0 mg/kg/injection, schedule: Q04DX003 (sc), vehicle: saline with Tween-80.

As for `O=C(C#Cc1ccccc1)c1ccccc1`, the T/C was 87 % of control under setting [1]; 111 % of control (dose: 25.0 mg/kg/injection, schedule: Q04DX003 (sc), vehicle: Klucel (hydroxypropylcellulose) (HPC)); 96 % of control under setting [2]; 90 % of control (dose: 50.0 mg/kg/injection, schedule: Q04DX003 (sc), vehicle: Klucel (hydroxypropylcellulose) (HPC)); 105 % of control under setting [3]; 113 % of control (dose: 100.0 mg/kg/injection, schedule: Q04DX003 (sc), vehicle: Klucel (hydroxypropylcellulose) (HPC)). For the same molecule, the T/C is, setting by setting: (dose: 150.0 mg/kg/injection, schedule: Q04DX003 (sc), vehicle: Klucel (hydroxypropylcellulose) (HPC)) 65 % of control; (dose: 200.0 mg/kg/injection, schedule: Q04DX003 (sc), vehicle: Klucel (hydroxypropylcellulose) (HPC)) 81 % of control.
As for `CC1CN=C(c2ccc(NC(=O)c3ccc(C(=O)Nc4ccc(C5=NCC(C)N5)cc4)cc3)cc2)N1` (stereo not given), the T/C by setting is: under setting [4], 213 % of control; under setting [5], 68 % of control; (dose: 200.0 mg/kg/injection, schedule: Q01DX010 (sc), vehicle: Klucel (hydroxypropylcellulose) (HPC)) 94 % of control; under setting [6], 84 % of control.
On to `Cc1c2cc(Cl)c3ccccc3c2c[n+]2ccccc12`, for which the T/C by setting is: under setting [7], 66 % of control; (dose: 600.0 mg/kg/injection, schedule: Q04DX003 (sc), vehicle: saline with Tween-80) 81 % of control; (dose: 1200.0 mg/kg/injection, schedule: Q04DX003 (sc), vehicle: saline with Tween-80) 70 % of control.
Turning to `CCCCCC(O)C1C(=O)OC(C)C(O)/C=C/C=C/C=C/C=C\C=C(\C)C(O)CC(O)CC(O)CC(O)CC(O)CC(O)CC1O` (stereo not given), the T/C runs as follows: (dose: 150.0 mg/kg/injection, schedule: Q04DX003 (sc), vehicle: distilled water + alcohol) 107 % of control; (dose: 300.0 mg/kg/injection, schedule: Q04DX003 (sc), vehicle: distilled water + alcohol) 117 % of control; (dose: 600.0 mg/kg/injection, schedule: Q04DX003 (sc), vehicle: distilled water + alcohol) 98 % of control; (dose: 1200.0 mg/kg/injection, schedule: Q04DX003 (sc), vehicle: distilled water + alcohol) 105 % of control.
As for `CC(C)[NH-].CC(C)[NH-].[Cl][Pt+2][Cl]`, the T/C was 48 % of control (dose: 25.0 mg/kg/injection, schedule: Q01DX010 (sc), vehicle: dextrose); 50 % of control (dose: 50.0 mg/kg/injection, schedule: Q01DX010 (sc), vehicle: dextrose); 71 % of control (dose: 100.0 mg/kg/injection, schedule: Q01DX010 (sc), vehicle: dextrose).
In the case of `C=C1C(C)C2C(Cc3ccccc3)NC(=O)C23C(OC(C)=O)C=CC(C)(O)C(=O)C(C)C/C=C/C3C1O` (stereo not given), the T/C reads like this: (dose: 7.5 mg/kg/injection, schedule: Q04DX003 (sc), vehicle: Klucel (hydroxypropylcellulose) (HPC)) 54 % of control; (dose: 15.0 mg/kg/injection, schedule: Q04DX003 (sc), vehicle: Klucel (hydroxypropylcellulose) (HPC)) 75 % of control.
`COc1cc2c(c(OC)c1OC)-c1ccc(OC)c(=O)cc1[C@@H](NC(=O)CCl)CC2`: the T/C (dose: 1.25 mg/kg/injection, schedule: Q04DX003 (sc), vehicle: saline with Tween-80) is 76 % of control; the T/C (dose: 2.5 mg/kg/injection, schedule: Q04DX003 (sc), vehicle: saline with Tween-80) was 77 % of control; the T/C (dose: 5.0 mg/kg/injection, schedule: Q04DX003 (sc), vehicle: saline with Tween-80) is 42 % of control.
As for `CC[C@]1(O)C[C@H]2CN(CCc3c([nH]c4ccccc34)[C@@](C(=O)OC)(c3cc4c(cc3OC)N(C)[C@H]3[C@@](O)(C(=O)OC)[C@H](OC(C)=O)[C@]5(CC)C=CCN6CC[C@]43[C@@H]65)C2)C1`, the T/C is 52 % of control (dose: 0.25 mg/kg/injection, schedule: Q01DX010 (sc), vehicle: saline); 68 % of control (dose: 1.0 mg/kg/injection, schedule: Q01DX010 (sc), vehicle: saline); 28 % of control (dose: 2.0 mg/kg/injection, schedule: Q01DX010 (sc), vehicle: saline).
Regarding `CCOC(=O)C(N)CSC(=O)NC` (stereo not given), the T/C is 165 % of control (dose: 50.0 mg/kg/injection, schedule: Q04DX003 (sc), vehicle: saline) and 94 % of control (dose: 400.0 mg/kg/injection, schedule: Q04DX003 (sc), vehicle: saline).
As for `CC1(C)OC(=O)N(CO)C1=O`, the T/C by setting is: (dose: 25.0 mg/kg/injection, schedule: Q01DX010 (sc), vehicle: saline) 51 % of control; (dose: 100.0 mg/kg/injection, schedule: Q01DX010 (sc), vehicle: saline) 116 % of control; (dose: 200.0 mg/kg/injection, schedule: Q01DX010 (sc), vehicle: saline) 110 % of control.
Consider `O=c1ssc(=Nc2ccccc2)n1-c1ccccc1`, for which the T/C is, setting by setting: under setting [5], 77 % of control; under setting [6], 97 % of control.
For `O=NN(CCCl)C(=O)NC1[C@H](O)CCC[C@@H]1O` (stereo not given in full), the T/C (dose: 5.0 mg/kg/injection, schedule: Q04DX003 (sc), vehicle: saline) was 25 % of control and 30 % of control and 48 % of control.
In the case of `C=C[Si]12OCCN(CCO1)CCO2`, the T/C is 250 % of control (dose: 300.0 mg/kg/injection, schedule: Q04DX003 (sc), vehicle: Klucel (hydroxypropylcellulose) (HPC)); 212 % of control (dose: 600.0 mg/kg/injection, schedule: Q04DX003 (sc), vehicle: Klucel (hydroxypropylcellulose) (HPC)); 163 % of control (dose: 1200.0 mg/kg/injection, schedule: Q04DX003 (sc), vehicle: Klucel (hydroxypropylcellulose) (HPC)).
In the case of `CN(C)c1ccc2c(N(C)C)cc(N(C)C)nc2c1`, the T/C runs as follows: (dose: 9.38 mg/kg/injection, schedule: Q04DX003 (sc), vehicle: Klucel (hydroxypropylcellulose) (HPC)) 102 % of control; under setting [1], 123 % of control; under setting [2], 96 % of control; under setting [3], 154 % of control.
Consider `CN(Cc1cnc2nc(N)nc(N)c2n1)c1c(Cl)cc(C(=O)NC(CCC(=O)O)C(=O)O)cc1Cl` (stereo not given), for which the T/C by setting is: (dose: 12.5 mg/kg/injection, schedule: Q01DX010 (sc), vehicle: Klucel (hydroxypropylcellulose) (HPC)) 73 % of control; (dose: 25.0 mg/kg/injection, schedule: Q01DX010 (sc), vehicle: Klucel (hydroxypropylcellulose) (HPC)) 48 % of control; under setting [4], 45 % of control.
With `CN1CCN(c2ccc([N+](=O)[O-])c3no[n+]([O-])c23)CC1`, under setting [8], the T/C was 73 % of control.
For the molecule `O=S(=O)(O)O.[NH-]C1CCCCC1[NH-].[Pt+2]` (stereo not given), the T/C (dose: 0.63 mg/kg/injection, schedule: Q01DX010 (sc), vehicle: dextrose) was 85 % of control; the T/C (dose: 1.25 mg/kg/injection, schedule: Q01DX010 (sc), vehicle: dextrose) was 90 % of control; the T/C (dose: 2.5 mg/kg/injection, schedule: Q01DX010 (sc), vehicle: dextrose) is 82 % of control.
On to `CN=C(N)N/N=C(\c1ccccc1)c1ccc(Br)cc1`, for which the T/C is 88 % of control (dose: 12.5 mg/kg/injection, schedule: Q04DX003 (sc), vehicle: saline with Tween-80); 122 % of control (dose: 25.0 mg/kg/injection, schedule: Q04DX003 (sc), vehicle: saline with Tween-80); 103 % of control (dose: 50.0 mg/kg/injection, schedule: Q04DX003 (sc), vehicle: saline with Tween-80).
As for `C/C=C(\C)c1cc(=O)c2c(C)cc3c(c2o1)C(=O)c1c(O)c(C2CC(C)(N(C)C)C(O)C(C)O2)cc(C2CC(N(C)C)C(O)C(C)O2)c1C3=O` (stereo not given), the T/C by setting is: (dose: 2.0 mg/kg/injection, schedule: Q04DX003 (sc), vehicle: saline) 76 % of control; (dose: 4.0 mg/kg/injection, schedule: Q04DX003 (sc), vehicle: saline) 89 % of control; (dose: 8.0 mg/kg/injection, schedule: Q04DX003 (sc), vehicle: saline) 80 % of control; (dose: 16.0 mg/kg/injection, schedule: Q04DX003 (sc), vehicle: saline) 35 % of control.
In the case of `O=C1NCC(Br)C(=O)N1` (stereo not given), the T/C was 99 % of control under setting [8] and 90 % of control under setting [7].
As to `O=C1C(=O)c2ccccc2C(O)=C1CC=C(Cl)Cl`, the T/C is 255 % of control (dose: 25.0 mg/kg/injection, schedule: Q01DX010 (sc), vehicle: water); 95 % of control (dose: 50.0 mg/kg/injection, schedule: Q01DX010 (sc), vehicle: water); 117 % of control (dose: 100.0 mg/kg/injection, schedule: Q01DX010 (sc), vehicle: water); 158 % of control (dose: 200.0 mg/kg/injection, schedule: Q01DX010 (sc), vehicle: water).

The values above are taken from PubChem BioAssay AID264 (DTP/NCI, 2004).
